Each structure is given as a SMILES string. Where two headings read alike, the source gives them in different places.

Eight compounds from patent publication US20240240150A1, “SPONTANEOUSLY BEATING CARDIAC ORGANOID CONSTRUCTS AND INTEGRATED BODY-ON-CHIP APPARATUS CONTAINING THE SAME” (Wake Forest University Health Sciences, priority 2015, published 2024) can be followed below.

Data set [1] concerns cardiac organoids. The note with it: for increase in beating rate: 0.5 μM. Here is the method:
Integrated organoid system and integrated response to drugs. To evaluate how the combination of both organoid types together impact drug response, epinephrine and propranolol were tested independently and jointly. In the independent scenario, organoid platforms were prepared in two groups: Group 1 consisted of a set of organoids comprised only of cardiac, with “blank” liver modules. Group 2 consisted of both cardiac and liver. However, it should be noted that cardiac and liver constructs were kept separate for the incubation period, while the drug was administered to the liver construct or “blank” liver module, after which the modules were joined for 30 minutes prior to cardiac beating rate assessment. Baseline cardiac organoid beating rates were determined in each group prior to drug administration. Then, the drugs—either 0.1 μM propranolol or 0.5 μM epinephrine—were administered, allowed to incubate for 1 hour, after which the modules were joined, and data was collected.

In data set [2] the test system is cardiac organoids. The data set is described as follows: Cardiac organoid beating rate response to drugs (onboard camera / microscope). Format: cell-based, human. An excerpt:
Cardiac construct baseline function monitoring and beat rate response to drugs. […] First the cover of the webcam is disassembled to retrieve the CMOS sensor. The lens of the webcam is then detached from its initial location, flipped, and integrated back to the holder to convert it into a magnifying lens. A base was then constructed for the mini-microscope to fit onto the bottom of the bioreactors. The base consisted of a dual-layer structure of PMMA sheets (⅛″ Thick, 12″×12″, McMaster 8505K11) cut into the dimensions of the bioreactors using a laser cutter (VLS 2.30 Desktop Laser System, Universal Laser Systems). Using 4 sets of screw/bolts, the CMOS module was tightly clamped in between a pair of PMMA structures. Additional 4 sets of screw/bolts were further mounted at the corners of the structures to function as the focus knobs. Only very minor alteration to the bioreactor itself was needed, i.e., 4 extra holes were drilled on the lower PMMA board to fit the imager at the bottom. During culture of cardiac constructs, videos were captured to analyze cardiac organoid beating rates. Video files were analyzed using custom written MatLab code with a series of MatLab functions. The software created a reference frame, based on the first frame of the video, and compared pixels in each subsequent frame, determining which pixels represented movement over time. The moving pixels in each frame were then used to generate a black and white pixilated representation of beat behavior, allowing visualization of beat propagation, and generation a plot showing the number of moving pixels versus time, allowing determination of beating rates.

Data set [3] relates to cardiac organoids. The protocol: To test the integrated response of the liver and cardiac system to epinephrine and propranolol combinations, the experimental groups described above were prepared and the same protocol (individual unit incubation prior to joining of modules) was followed. However, the incubation period was lengthened to overnight (18 hours). Both Group 1 and Group 2 were administered 0.1 uM propranolol. After the incubation period, the modules were joined and 0.5 uM epinephrine was be administered to both groups. Additionally, in parallel, a Group 3 condition was employed, which mirrored Group 2, but used a 2D hepatocyte culture (1-2 million cells/well) instead of the liver construct as a 2D comparison.

The test system of data set [4] is bioprinted cardiac tissue constructs (rat neonatal cardiomyocytes). Put plainly: Bioprinted rat cardiac tissue constructs, response to cardiac drugs. The data set is classed as cell-based. From the text: In this study, 3D bioprinting was applied to fabricate functional and contractile cardiac tissue constructs. Rat neonatal heart tissues were obtained to isolate cardiomyocytes, and the cells were suspended in a fibrin-based hydrogel bioink. Cell-laden hydrogel was printed through a 300-micron nozzle by pneumatic pressure. […] Moreover, tissue development of the printed cardiac tissue could accelerate by Notch signal blockade.

For data set [5], the system named is liver organoids. The data set is described as follows: Troglitazone toxicity, organoid viability by CellTiter-Glo ATP assay. The note with it: liver organoids treated for 48 hours. Format: cell-based, human. Here is the method:
Organoid viability assays. Organoid viability was assessed by ATP production as a measure of metabolic activity as detailed in the following white paper^1. CellTiter-Glo assay (Promega) was used to measure ATP by transferring one organoid/well to a black, opaque 96-well plate (Corning). Blanks were included using HCM medium (Lonza) at 80 μl/well. 80 μl of prepared CellTiter-Glo buffer was added per well and plate was placed on shaker for 5 minutes to lyse cells, then further incubated for 15 minutes protected from light. Plate was read using plate reader (SpectraMax M5, Molecular Devices) with an integration time of 0.5 see/well. Sample time points were compared via two-sample unequal variance t-test. Live/dead stain was also used to assess viability. Organoids were washed in PBS and then stained with live/dead viability/cytotoxicity kit (Life Technologies): 2 μL/mL ethidium homodimer-1 and 0.5 μL/mL calcein AM (diluted in PBS) for 45 minutes at room temperature, protected from light. Organoids were transferred to a depression glass slide (Erie Scientific) and then imaged using TCS LSI macro confocal microscope with 5× macro objective (Leica).
Troglitazone toxicity. […] Organoid viability was measured using the CellTiter-Glo assay (Promega) as recorded as previously described.

In data set [6] the test system is liver organoids. The data set is described as follows: Phospholipid accumulation, HCS LipidTox Phospholipidosis Detection Stain. Particulars: 48 hour treatment, even with lower concentrations. Format: cell-based, human. Here is the method: Accumulation of phospholipids within the organoids was imaged using the HCS LipidTox Phospholipidosis Detection Stain (Invitrogen). LipidTox reagent was added to medium at the same time as the troglitazone at a ratio of 1:500. Following 48 hour drug treatment, organoids were fixed in 4% paraformaldehyde (Sigma Aldrich), washed in PBS, and then transferred to a depression glass slide (Erie Scientific) for imaging using TCS LSI macro confocal with 5× macro objective (Leica).

The test system of data set [7] is liver constructs (bioprinted liver organoids). Put plainly: On-chip liver construct lactate dehydrogenase release into media. The data set is classed as cell-based, human. The note with it: for LDH concentration in the media: day 10.
Data set [8] shares this test system. Put plainly: On-chip liver construct urea secretion (colorimetric assay). The data set is classed as cell-based, human. The protocol: (§1) Liver construct synthetic functionality, response to acetaminophen insult, and intervention with N-acetyl-L-cysteine. To assess the response of the liver organoid system to toxic drug insult, acetaminophen was employed. Liver organoids were cultured in microreactors as described before for 14 days. Media samples were collected on days 3, 6, 10, and 14. After media collection on day 6, 1 set of organoids continued with normal media, 1 set of organoids were treated with 1 mM APAP, and 1 set of organoids were treated with 10 mM APAP. To assess the effectiveness of a countermeasure treatment to be used in the liver organoid system, N-acetyl-L-cysteine was explored as a clinically relevant treatment against APAP-induced toxicity. This final set of organoids was treated with 10 mM APAP and 20 mM N-acetyl-L-cysteine. During media changes, groups receiving the drug treatment received fresh HCM also containing the appropriate drug concentration.
(§2) For assessment of liver organoid albumin and urea secretion under baseline conditions as well as during exposure to APAP, collected media aliquots were analyzed using a Human Albumin ELISA assay (Alpha Diagnostic International) and the amount of secreted urea in the collected media was determined using a Urea colorimetric assay (BioAssay Systems). For viability assessment, organoids were removed immediately after the final media collection time point (day 14) for staining by LIVE/DEAD viability/cytotoxicity kits (Life Technologies). Staining consisted of incubation in 2 uM calcein AM (stains live cells green) and 4 uM EthD-1 (stains dead cells red) in a 1:1 PBS:HCM solution. […] Additionally, media samples were analyzed for presence of lactate dehydrogenase (LDH), an enzyme that is released from cells after toxicity causes cell membrane rupture, using a Lactate Dehydrogenase Assay Kit (Abcam), and for α-GST, a hepatocyte-specific enzyme also released from cells after exposure to toxicity, using an α-GST Assay Kit (Oxford Biomedical Research).

For data set [9] the test system is unchanged. The data set is described as follows: On-chip liver construct viability by LIVE/DEAD staining after APAP / NAC. The data set is classed as cell-based. The note with it: day 14. The protocol:
as §1, §2

The test system is the same in data set [10]. The data set is described as follows: On-chip liver construct albumin secretion (Human Albumin ELISA). Format: cell-based. The note with it: for albumin levels vs 0 mM control: administered after day 6. Here is the method: as §1
For assessment of liver organoid albumin and urea secretion under baseline conditions as well as during exposure to APAP, collected media aliquots were analyzed using a Human Albumin ELISA assay (Alpha Diagnostic International) and the amount of secreted urea in the collected media was determined using a Urea colorimetric assay (BioAssay Systems). For viability assessment, organoids were removed immediately after the final media collection time point (day 14) for staining by LIVE/DEAD viability/cytotoxicity kits (Life Technologies). Staining consisted of incubation in 2 uM calcein AM (stains live cells green) and 4 uM EthD-1 (stains dead cells red) in a 1:1 PBS:HCM solution. Following staining, organoids were washed in PBS, fixed in 4% PFA, transferred to PBS, and imaged using macro-confocal microscopy (Leica TCS LSI). Additionally, media samples were analyzed for presence of lactate dehydrogenase (LDH), an enzyme that is released from cells after toxicity causes cell membrane rupture, using a Lactate Dehydrogenase Assay Kit (Abcam), and for α-GST, a hepatocyte-specific enzyme also released from cells after exposure to toxicity, using an α-GST Assay Kit (Oxford Biomedical Research).

The test system is the same in data set [11]. The data set is described as follows: On-chip liver construct alpha-GST release into media. The data set is classed as cell-based, human. The note with it: 10 mM APAP + 20 mM NAC. Here is the method: Liver construct synthetic functionality, response to acetaminophen insult, and intervention with N-acetyl-L-cysteine. To assess the response of the liver organoid system to toxic drug insult, acetaminophen was employed. Liver organoids were cultured in microreactors as described before for 14 days. Media samples were collected on days 3, 6, 10, and 14. After media collection on day 6, 1 set of organoids continued with normal media, 1 set of organoids were treated with 1 mM APAP, and 1 set of organoids were treated with 10 mM APAP. […]
as §2, with “Systems).” for “Systems). For viability assessment, organoids were removed immediately after the final media collection time point (day 14) for staining by LIVE/DEAD viability/cytotoxicity kits (Life Technologies). Staining consisted of incubation in 2 uM calcein AM (stains live cells green) and 4 uM EthD-1 (stains dead cells red) in a 1:1 PBS:HCM solution.”

In the case of `CC(C)NCC(O)COc1cccc2ccccc12` (stereo not drawn) [propranolol], the “decrease in beating rate” value in [1] (0.1 μM, cardiac-only system) is given as around 10%. The “change in beating rate” value in [1] (0.1 μM, in the presence of the liver construct) is recorded as “no decrease in beating rate”. In addition, the “prevention of epinephrine-induced increase in beating rate” value in data set [2] (0, 0.5, 5, 20 uM propranolol for 20 minutes, then 5 uM epinephrine) is listed as “more effectively prevented epinephrine-induced increases in beating rates”. For the same compound, the “block of beta-adrenergic effects of 0.5 μM epinephrine” value in [3] (0.1 μM propranolol, Group 1, no liver organoids) is given as “successfully blocked”.

As for `C=C[C@H]1C[N@@]2CC[C@H]1C[C@@H]2[C@@H](O)c1ccnc2ccc(OC)cc12` [quinidine], in [2] (1 μM), the organoid beating rate entry was “slowed organoid beating rate”.

In the case of `C[N+](C)(C)CCOC(N)=O` [carbachol], the “physiological responses (beating frequency and contraction forces)” value in [4] is “showed physiological responses”.

Turning to `Cc1c(C)c2c(c(C)c1O)CCC(C)(COc1ccc(CC3SC(=O)NC3=O)cc1)O2` (stereo not drawn) [troglitazone], the “viability (ATP quantification), dose-response” value in data set [5] was “decrease in viability as concentration of drug is increased”. In addition, the phospholipid accumulation entry in data set [6] was “Considerable phospholipid accumulation”.

As to `CC(C)NCC(O)c1ccc(O)c(O)c1` (stereo not drawn) [Isoproterenol], in data set [2] (0.1 mM), the organoid beating rate result is on record as “increased organoid beating rate”.

As to `CC(=O)N[C@@H](CS)C(=O)O` [NAC, N-acetyl-L-cysteine], the “LDH concentration in the media” value in data set [7] (10 mM APAP + 20 mM NAC) was “almost identical to the control group”. Also, in data set [8] (10 mM APAP + 20 mM NAC), the “urea levels vs 10 mM APAP” value is recorded as “significantly greater than the 10 mM APAP urea levels” and the “urea levels vs control organoids” value is on record as “not significantly different than the control organoids”. The “viability (LIVE/DEAD), rescue from APAP” value in data set [9] (10 mM APAP + 20 mM NAC) is “reduced the level of morbidity”. Moreover, the “albumin levels vs 10 mM APAP group” value in data set [10] (10 mM APAP + 20 mM NAC) is “significantly greater than those of the 10 mM APAP treated group”. Further, in [11] (day 10), the alpha-GST in media result was “about 6 ng/mL”. Also, the alpha-GST in media in [11] (day 14) is around 5 ng/mL.

As to `CNC[C@H](O)c1ccc(O)c(O)c1` [epinephrine], the entries for the “increase in beating rate” value in data set [1] (cardiac-only system) and in [1] (with liver component) were “approximately 40%” and around 30%, respectively. In [2], the “concentration at which beating rate plateau is reached” value is at least 5 µM. Further, the “organoid beating rate, dose response” value in data set [2] (0, 0.1, 0.5, 5 and 50 uM) is given as “increased in a dose-dependent manner”. Further, in data set [3] (0.5 μM epinephrine after 0.1 μM propranolol, 2D hepatocyte culture instead of liver construct), the “restoration of the epinephrine-induced increase in beat rate” value is given as “failed achieve any restoration”. Besides, the “increase in BPM” value in data set [3] (0.5 μM epinephrine after 0.1 μM propranolol, Group 2, liver component added) came to 1.25 fold. The “response relative to control epinephrine-only response” value in data set [3] (0.5 μM epinephrine after 0.1 μM propranolol, Group 2 with 3D liver organoids) is recorded as “approximately 50%”. The “increase in cardiac BPM” value in data set [3] (0.5 μM epinephrine, controls with no propranolol) worked out at 1.5 fold. The “physiological responses (beating frequency and contraction forces)” value in data set [4] is “showed physiological responses”.

Take `CC(=O)Nc1ccc(O)cc1` [APAP, acetaminophen]: in data set [7] (10 mM APAP), the “LDH concentration in the media” value is given as “clear increase in LDH concentration”. Moreover, the LDH levels result in data set [7] (10 mM APAP, day 14) is on record as “drop down to baseline”. Besides, the urea levels result in data set [8] (1 mM and 10 mM APAP, after administration) is listed as “drop in a dose dependent manner”. In addition, the “viability (ratio of live to dead cells, LIVE/DEAD)” value in [9] (1 mM APAP) is 30-50%. The “viability (LIVE/DEAD)” value in [9] (10 mM APAP) is “few viable cells”. For the same compound, the “albumin levels vs 0 mM control” value in data set [10] (1 mM APAP) and in [10] (10 mM APAP) was “significantly decreased” throughout. In data set [10] (10 mM APAP, day 14), the albumin levels result is “nearly immeasurable”.
